These results are taken from patent US20260256796A1, “METHOD FOR TREATING FELINE CORONAVIRUS OR CALICIVIRUS INFECTION” (VIGONVITA LIFE SCIENCES CO., LTD., priority 2022, published 2026).

Data set [1] deals with feline infectious peritonitis virus (FIPV). The data set can be described thus: Inhibitory activity against feline coronavirus (FIPV) in CRFK cells, CellTiter-Glo readout. Format: cell-based. The conditions noted are these: for EC50: Alphacoronavirus 1, FIPV 0.1 MOI/well, 72 h, CellTiter-Glo; for inhibition of replication of FIPV in vitro: summary of Table 1. The method, then:
CRFK cells in a good growth state were seeded into a 96-well assay plate. When the cells grew to 80%-90% confluence, feline coronavirus (FIPV) (0.1 MOI/well) and varying concentrations of the test compounds were added to the assay plate. Meanwhile, a cell control (cells, no compound treatment or viral infection) and a virus control (cells infected with virus, no compound treatment) were set. The final concentration of DMSO in the culture solution was 1%. After incubation at 37° C. for 72 h, the cells were treated with a CellTiter-Glo luminescent cell viability assay reagent (Promega, Madison, WI, USA). The half-maximal effective concentration (EC50) values of the compounds for virus inhibition were calculated using the GraphPad prism 7 software.

Data set [2] in a line: Pharmacokinetic evaluation in rats. Format: in vivo. To be noted: male, SD; for AUC(0-inf) / AUC(0-t) / Cmax: nucleoside (compound 4) in rat plasma. The protocol: Male SD rats were fasted before the experiment (except for the intravenous group, which was not fasted), with free access to water, and were fed uniformly 2 h after administration. Compound 4 was administered by intravenous injection at a dose of 2.0 mg/kg (n=3) and administered intragastrically at a dose of 10.0 mg/kg (n=3); compound 53 was administered by intravenous injection at a dose of 5.0 mg/kg (n=3) and administered intragastrically at a dose of 20.0 mg/kg (n=3); the administration vehicle was 5% DMSO+5% ethanol+40% PEG300+50% saline. After the administration, 0.2-mL blood samples were collected via the jugular vein at different time points. Each blood sample was then placed into a heparin sodium anticoagulation tube, gently mixed uniformly, and centrifuged at 2000 g for 10 min. Plasma was isolated and frozen in a refrigerator at −70° C. for later analysis. The concentration of nucleoside (compound 4) in the plasma was determined by the LC-MS-MS method, and pharmacokinetic parameters were calculated.

SMILES strings stand for the structures.

In the case of `N#C[C@@]1(c2ccc3c(N)ncnn23)O[C@H](CO)[C@H]2OC(=O)O[C@H]21` [Compound 25], the EC50 in data set [1] was determined as 2.75 µM. For the compound `CC(C)C(=O)O[C@H]1[C@@H](O)[C@](C#N)(c2ccc3c(N)ncnn23)O[C@@H]1CO` [Compound 20], in data set [1], the midpoint of the response, the EC50, lay at 0.69 µM and the “inhibition of replication of FIPV in vitro” value (“inhibition” for short) is listed as “could inhibit the replication”. The matching figures for `CC(C)C(=O)OC[C@H]1O[C@@](C#N)(c2ccc3c(N)ncnn23)[C@H](O)[C@@H]1O` [Compound 6]: 0.65 µM and “could inhibit the replication”.

Compound `[2H]c1cc([C@]2(C#N)O[C@H](COC(C)=O)[C@@H](OC(C)=O)[C@H]2OC(C)=O)n2ncnc(N)c12` [Compound 40] showed a concentration for a half-maximal effect (EC50) in data set [1] of 1.05 µM.

For `[2H]c1cc([C@]2(C#N)O[C@H](COC(=O)C(C)C)[C@@H](O)[C@H]2O)n2ncnc(N)c12` [Compound 11], in data set [1], the 50% effective concentration (EC50) turned out to be 0.69 µM and the “inhibition” value was “could inhibit the replication”.

`CC(C)C(=O)OC[C@H]1O[C@@](C#N)(c2ccc3c(N)ncnn23)[C@H](OC(=O)C(C)C)[C@@H]1OC(=O)C(C)C` [Compound 27] yielded an EC50 in data set [1] of 1.59 µM. On the same count and under the same terms, the same measure for `[2H]c1cc([C@]2(C#N)O[C@H](COC(=O)C(C)C)[C@@H](OC(=O)C(C)C)[C@H]2OC(=O)C(C)C)n2ncnc(N)c12` [Compound 42]: 1.63 µM. In data set [1], `[2H]c1cc([C@]2(C#N)O[C@H](CO)[C@@H](O)[C@H]2O)n2ncnc(N)c12` [Compound 4] showed a concentration for a half-maximal effect (EC50) of 2.34 µM. Moreover, the bioavailability in data set [2] (plasma, rat, nucleoside (compound 4) measured, po 10.0 mg/kg vs iv 2.0 mg/kg, read-out: F (oral bioavailability)) is 21.7%. For the same compound, in data set [2] (iv 2.0 mg/kg), the AUC(0-inf) was 1790 ng·h/mL, the area under the curve AUC(0-t) is 1720 ng·h/mL and the Cmax worked out at 1630 ng/mL. In data set [2] (po 10.0 mg/kg), this compound came in with an AUC(0-inf) of 1910 ng·h/mL, an exposure AUC(0-t) of 1870 ng·h/mL and a peak concentration (Cmax) of 246 ng/mL. In turn, `[2H]c1cc([C@]2(C#N)O[C@H](COC(=O)CC)[C@@H](O)[C@H]2O)n2ncnc(N)c12` [Compound 29] displayed an EC50 in data set [1] of 1.1 µM. In the case of `[2H]c1cc([C@]2(C#N)O[C@H](COC(C)=O)[C@@H](O)[C@H]2O)n2ncnc(N)c12` [Compound 52], the EC50 in data set [1] turned out to be 1.3 µM. With `[2H]c1cc([C@]2(C#N)O[C@H](COC(=O)C(CC)CC)[C@@H](O)[C@H]2O)n2ncnc(N)c12` [Compound 32], the half-maximal effective concentration (EC50) in data set [1] amounted to 43.8 µM. With `[2H]c1cc([C@]2(C#N)O[C@H](COC(=O)C(C)C)[C@H]3OC(=O)O[C@H]32)n2ncnc(N)c12` [Compound 53], in data set [1], the 50% effective concentration (EC50) is 0.66 µM and the “inhibition” value is “could inhibit the replication”. For `N#C[C@@]1(c2ccc3c(N)ncnn23)O[C@H](CO)[C@@H](O)[C@H]1O` [GS-441524, reference compound], in data set [1], a half-maximal response (EC50) required 2.29 µM.
